# pIC50: −log10 of the molar value.
# Tested on: 633275-114-R-J1-PDC complex spheroids, viability
# Experiment: Anticancer human tumor 633275-114-R-J1-PDC patient-derived endometrial adenocarcinoma cell line growth inhibition [GQUAD]
# Conditions: for pIC50: curve of first compound; for viability, T/C: stronger effect = lower value
# Excerpt: DNA G-quadruplex Stabilizer Agents in Combinations in Complex Spheroids
# A high-throughput screen of multi-cell type tumor spheroids was designed to identify active combinations of DNA G-quadruplex stabilizer agents and targeted small molecules. Complex spheroids include a stromal component modeled by human endothelial cells (HUVEC) and fibroblasts modeled by human mesenchymal stem cells (MSCs). The concentration ranges selected for each drug and investigational agent were based upon clinically achievable concentrations if the clinical Cmax of the agent was known.
# Compounds. The drugs and investigational agents: pidnarulex (CX-5461; NSC782164), APTO-253 (NSC789042), BRACO-19 (NSC847499), peposertib (NSC802822), ceralasertib (NSC780249), elimusertib (NSC800525), camonsertib (NSC841442), AZD-1390 (NSC803789), olaparib (NSC753686), talazoparib (NSC767125), ART-558 (NSC835418), sotorasib (NSC818433), MRTX-1133 (NSC836407), SN-38 (NSC673596), topotecan (NSC609699), etoposide (NSC141540), doxorubicin (NSC123127), gemcitabine (NSC613327), 5-fluorouracil (NSC19893), paclitaxel (NSC125973), vemurafenib (NSC761431), panobinostat (NSC761190), R-306465 (JNJ-16241199; NSC773264), adavosertib (NSC754352), TP-3654 (NSC805149), carboplatin (NSC241240), KSQ-4279 (NSC840948), and staurosporine (NSC755774) were obtained from the National Cancer Institute (NCI) Developmental Therapeutics Program Chemical Repository (34). The FDA-approved anticancer drug set is available from the NCI Developmental Therapeutics Program. […] The stock solutions were prepared in dimethyl sulfoxide (DMSO, Sigma-Aldrich, St. Louis, MO, cat. D2650) at 800-fold the tested concentration and stored at -70 degrees C prior to their use. All drugs and investigational agents were tested over a range starting from a high concentration at or near the clinical Cmax and decreasing in half-log increments. If the clinical Cmax for an agent had not been determined, the highest concentration tested was 10 microM.
# 2.3 Cell Culture. All cells were maintained in an incubator at 37 degrees C and 5% CO2 with 95% humidity. The PDC lines were cultured according to standard operating procedures established by the NCI PDMR. All PDCs were thawed and cultured in Matrigel-coated flasks prepared with a working solution of 1X Ham's F-12 nutrient mix, without supplementation (Invitrogen, cat. 11765054), 100 U/mL penicillin-streptomycin (Invitrogen, cat. 15140122), and 2.5% Matrigel (Corning Inc., cat. 354248) for the first three passages. The 857933-349-R-J2-PDC line was cultured in 6C/Colon 1B media, which includes advanced DMEM/F-12 (Thermo Fisher Scientific, cat. 12634028), 10 mM HEPES (Thermo Fisher Scientific, cat. 15630080), 1X GlutaMAX supplement (Thermo Fisher Scientific, cat. 35050061), 0.1 mg/mL primocin (InvivoGen, cat. ant-pm-2), 10% defined fetal bovine serum, heat inactivated (HyClone Laboratories Inc., cat. SH30070.03HI), 50% L-WRN conditioned media (ATCC, cat. CRL-3276), 1.25 mM N-Acetyl-L-cysteine (Sigma-Aldrich, cat. A9165), 10 mM nicotinamide (Sigma-Aldrich, cat. N0636), 1X B-27 supplement (Thermo Fisher Scientific, cat. 17504044), 1X N-2 supplement (Thermo Fisher Scientific, cat. 17502048), 10 microM Y-27632 dihydrochloride (Tocris Bioscience, cat. 1254), and 50 ng/mL human EGF recombinant protein (Thermo Fisher Scientific, cat. PHG0311). The 485176-168-R4-J1-PDC line was cultured in Panc media, which includes all 6C/Colon 1B media components plus 100 ng/mL human FGF-10 (Thermo Fisher Scientific, cat. 100-26), 500 nM SB-431542 (Selleckchem, cat. S1067), and gastrin (Tocris, cat. 3006).
# […]
# [1] = second compound 0.0316 µM, first compound 0.0316 µM
# [2] = second compound 0.0316 µM, first compound 0.1 µM
# [3] = second compound 0.0316 µM, first compound 0.316 µM
# [4] = second compound 0.0316 µM, first compound 1 µM
# [5] = second compound 0.0316 µM, first compound 3.16 µM
# [6] = second compound 0.0316 µM, first compound 10 µM
# [7] = second compound 0.1 µM, first compound 0.0316 µM
# [8] = second compound 0.1 µM, first compound 0.1 µM
# [9] = second compound 0.1 µM, first compound 0.316 µM
# [10] = second compound 0.1 µM, first compound 1 µM
# [11] = second compound 0.1 µM, first compound 3.16 µM
# [12] = second compound 0.1 µM, first compound 10 µM
# [13] = second compound 0.316 µM, first compound 0.0316 µM
# [14] = second compound 0.316 µM, first compound 0.1 µM
# [15] = second compound 0.316 µM, first compound 0.316 µM
# [16] = second compound 0.316 µM, first compound 1 µM
# [17] = second compound 0.316 µM, first compound 3.16 µM
# [18] = second compound 0.316 µM, first compound 10 µM
# [19] = second compound 1 µM, first compound 0.0316 µM
# [20] = second compound 1 µM, first compound 0.1 µM
# [21] = second compound 1 µM, first compound 0.316 µM
# [22] = second compound 1 µM, first compound 1 µM
# [23] = second compound 1 µM, first compound 3.16 µM
# [24] = second compound 1 µM, first compound 10 µM
# [25] = second compound 3.16 µM, first compound 0.0316 µM
# [26] = second compound 3.16 µM, first compound 0.1 µM
# [27] = second compound 3.16 µM, first compound 0.316 µM
# [28] = second compound 3.16 µM, first compound 1 µM
# [29] = second compound 3.16 µM, first compound 3.16 µM
# [30] = second compound 3.16 µM, first compound 10 µM
# [31] = second compound 10 µM, first compound 0.0316 µM
# [32] = second compound 10 µM, first compound 0.1 µM
# [33] = second compound 10 µM, first compound 0.316 µM
# [34] = second compound 10 µM, first compound 1 µM
# [35] = second compound 10 µM, first compound 3.16 µM
# [36] = second compound 10 µM, first compound 10 µM
# 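Further: spheroids exposed to the agents for seven days.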
# 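Wherever viability, T/C is given: percent of DMSO vehicle control viability which is 100%.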
compound,measurement,setting,value
Nc1ccn(C2OC(CO)C(O)C2(F)F)c(=O)n1 (centres undefined) + Cc1cnc(CNC(=O)c2c(=O)c3ccc(N4CCCN(C)CC4)nc3n3c2sc2ccccc23)cn1,pIC50,second compound 0.0316 µM,> 7.50
same,pIC50,second compound 0.1 µM,> 7.50
same,pIC50,second compound 0.316 µM,> 7.50
same,pIC50,second compound 1 µM,> 7.50
same,pIC50,second compound 3.16 µM,> 7.50
same,pIC50,second compound 10 µM,> 7.50
same,"viability, T/C",[1],26.8%
same,"viability, T/C",[2],22.2%
same,"viability, T/C",[3],21.5%
same,"viability, T/C",[4],21.3%
same,"viability, T/C",[5],20.6%
same,"viability, T/C",[6],19.9%
same,"viability, T/C",[7],27.8%
same,"viability, T/C",[8],23.1%
same,"viability, T/C",[9],22.4%
same,"viability, T/C",[10],19.9%
same,"viability, T/C",[11],24.2%
same,"viability, T/C",[12],19.5%
same,"viability, T/C",[13],24.7%
same,"viability, T/C",[14],25.8%
same,"viability, T/C",[15],22.4%
same,"viability, T/C",[16],22.9%
same,"viability, T/C",[17],21.9%
same,"viability, T/C",[18],19.5%
same,"viability, T/C",[19],25.5%
same,"viability, T/C",[20],23.8%
same,"viability, T/C",[21],22.7%
same,"viability, T/C",[22],24%
same,"viability, T/C",[23],23%
same,"viability, T/C",[24],19.4%
same,"viability, T/C",[25],25.7%
same,"viability, T/C",[26],23.6%
same,"viability, T/C",[27],21.7%
same,"viability, T/C",[28],22%
same,"viability, T/C",[29],21.5%
same,"viability, T/C",[30],20.9%
same,"viability, T/C",[31],26.6%
same,"viability, T/C",[32],22.3%
same,"viability, T/C",[33],22.6%
same,"viability, T/C",[34],23.3%
same,"viability, T/C",[35],20.7%
same,"viability, T/C",[36],17.9%
O=c1[nH]cc(F)c(=O)[nH]1 + Cc1cnc(CNC(=O)c2c(=O)c3ccc(N4CCCN(C)CC4)nc3n3c2sc2ccccc23)cn1,pIC50,second compound 0.0316 µM,< 5.00
same,pIC50,second compound 0.1 µM,5.95
same,pIC50,second compound 0.316 µM,> 7.50
same,pIC50,second compound 1 µM,> 7.50
same,pIC50,second compound 3.16 µM,> 7.50
same,pIC50,second compound 10 µM,> 7.50
same,"viability, T/C",[1],67%
same,"viability, T/C",[2],66.8%
same,"viability, T/C",[3],62.7%
same,"viability, T/C",[4],64.5%
same,"viability, T/C",[5],58.8%
same,"viability, T/C",[6],50.6%
same,"viability, T/C",[7],60.6%
same,"viability, T/C",[8],49.7%
same,"viability, T/C",[9],55.8%
same,"viability, T/C",[10],48.5%
same,"viability, T/C",[11],51%
same,"viability, T/C",[12],43.7%
same,"viability, T/C",[13],45.1%
same,"viability, T/C",[14],49.6%
same,"viability, T/C",[15],45.6%
same,"viability, T/C",[16],46.8%
same,"viability, T/C",[17],46.1%
same,"viability, T/C",[18],34.4%
same,"viability, T/C",[19],40.9%
same,"viability, T/C",[20],45.9%
same,"viability, T/C",[21],39.4%
same,"viability, T/C",[22],39.2%
same,"viability, T/C",[23],41.2%
same,"viability, T/C",[24],31.5%
same,"viability, T/C",[25],40.7%
same,"viability, T/C",[26],38%
same,"viability, T/C",[27],37%
same,"viability, T/C",[28],32.6%
same,"viability, T/C",[29],36.7%
same,"viability, T/C",[30],34.9%
same,"viability, T/C",[31],35.8%
same,"viability, T/C",[32],33.6%
same,"viability, T/C",[33],30.6%
same,"viability, T/C",[34],38.4%
same,"viability, T/C",[35],30.9%
same,"viability, T/C",[36],25%
